The record followed here is patent US9572347B2, “Method for inactivating a virus” (THE UNIVERSITY OF TOKYO, priority 2009, dated 2017).

In the assay the test system is Qβ phage (NBRC 20012). Kind of assay: phage inactivation ability test on sample-coated glass plate (Example 1 method). The format is cell-based. The settings on record: same copper ion ratio, contact of 30 minutes, FIG. 2.
Take `[Cl][Cu]` [CuCl, cuprous chloride]: the phage inactivation effect result is listed as “almost the same phage inactivation ability as that of cuprous oxide”.

Turning to `[Cu+].[I-]` [CuI, cuprous iodide], the phage inactivation effect entry is listed as “high phage inactivation effect”.

As for “cupric sulfide [CuS, reference compound]”, the phage inactivation effect result is on record as “almost no inactivation effect”.

For cuprous sulfide [Cu2S], the phage inactivation effect result is listed as “high phage inactivation effect”.
